Results taken from patent US10660877B2 (BRISTOL-MYERS SQUIBB COMPANY, priority 2016, dated 2020).
pIC50: −log10 of the molar value. Read-outs that look alike come from different tables or passages of the source.

Assays:
human TLR9 = human TLR9 (Homo sapiens (Human), UniProt Q9NR96); test: TLR9 inhibition reporter assay (HEK-Blue cells, SEAP reporter, ODN2006 stimulation);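 note: compounds tested over 0.05 nM to 50 µM, 22 h incubation, inhibition taken as SEAP signal drop from agonist plus DMSO wells toward a known inhibitor control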
human TLR8 = human TLR8 (Homo sapiens (Human), UniProt Q9NR97); test: TLR8 inhibition reporter assay (HEK-Blue cells, SEAP reporter, R848 stimulation);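 note: compounds tested from 0.05 nM to 50 µM, 22 h at 37 °C, SEAP measured with HEK-Blue Detection, inhibition relative to agonist plus DMSO versus a known inhibitor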
human TLR7 = human TLR7 (Homo sapiens (Human), UniProt Q9NYK1); test: TLR7 inhibition reporter assay (HEK-Blue cells, SEAP reporter, gardiquimod stimulation); assay type: cell-based
[1] = read-out: TLR9 IC50, HEK-Blue cells overexpressing human TLR9, ODN2006 5 nM
[2] = read-out: TLR8 IC50, HEK-Blue cells overexpressing human TLR8, R848 15.9 μM
[3] = HEK-Blue cells overexpressing human TLR7, gardiquimod 7.5 μM
[4] = read-out: TLR9 IC50, HEK-Blue cells, ODN2006 5 nM
[5] = read-out: TLR8 IC50, HEK-Blue cells, R848 15.9 μM
[6] = HEK-Blue cells, gardiquimod 7.5 μM
[7] = TLR9 IC50, HEK-Blue cells overexpressing human TLR9, ODN2006 5 nM
[8] = TLR8 IC50, HEK-Blue cells overexpressing human TLR8, R848 15.9 μM

human TLR7, sequence (Q9NYK1 27-1049): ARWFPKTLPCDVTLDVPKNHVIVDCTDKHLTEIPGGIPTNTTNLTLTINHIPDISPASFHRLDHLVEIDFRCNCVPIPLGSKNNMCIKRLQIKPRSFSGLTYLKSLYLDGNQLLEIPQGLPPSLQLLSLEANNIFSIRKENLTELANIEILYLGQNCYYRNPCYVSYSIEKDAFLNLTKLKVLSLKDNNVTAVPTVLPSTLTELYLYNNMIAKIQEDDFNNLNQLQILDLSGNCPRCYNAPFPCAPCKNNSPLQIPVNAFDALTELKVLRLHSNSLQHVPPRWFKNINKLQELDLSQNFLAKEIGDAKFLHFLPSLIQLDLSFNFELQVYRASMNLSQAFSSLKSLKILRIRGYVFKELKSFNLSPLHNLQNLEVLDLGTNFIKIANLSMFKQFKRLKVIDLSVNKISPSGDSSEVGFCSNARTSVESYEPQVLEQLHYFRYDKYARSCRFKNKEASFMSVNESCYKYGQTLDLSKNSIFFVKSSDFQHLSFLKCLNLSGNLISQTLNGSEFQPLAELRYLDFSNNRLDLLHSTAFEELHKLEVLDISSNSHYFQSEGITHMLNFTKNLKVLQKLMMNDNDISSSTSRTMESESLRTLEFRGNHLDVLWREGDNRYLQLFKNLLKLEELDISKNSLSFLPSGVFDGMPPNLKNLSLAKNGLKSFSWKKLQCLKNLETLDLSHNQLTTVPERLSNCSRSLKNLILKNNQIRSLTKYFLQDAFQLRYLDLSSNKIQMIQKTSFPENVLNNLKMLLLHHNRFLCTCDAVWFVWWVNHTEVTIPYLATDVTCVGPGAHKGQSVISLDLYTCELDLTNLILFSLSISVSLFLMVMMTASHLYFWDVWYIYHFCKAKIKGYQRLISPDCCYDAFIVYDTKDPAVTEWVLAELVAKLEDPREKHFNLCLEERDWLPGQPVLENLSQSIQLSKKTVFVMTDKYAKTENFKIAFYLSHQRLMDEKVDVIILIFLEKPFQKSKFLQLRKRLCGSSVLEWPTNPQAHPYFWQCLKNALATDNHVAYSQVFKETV
human TLR8, sequence (Q9NR97 27-1041): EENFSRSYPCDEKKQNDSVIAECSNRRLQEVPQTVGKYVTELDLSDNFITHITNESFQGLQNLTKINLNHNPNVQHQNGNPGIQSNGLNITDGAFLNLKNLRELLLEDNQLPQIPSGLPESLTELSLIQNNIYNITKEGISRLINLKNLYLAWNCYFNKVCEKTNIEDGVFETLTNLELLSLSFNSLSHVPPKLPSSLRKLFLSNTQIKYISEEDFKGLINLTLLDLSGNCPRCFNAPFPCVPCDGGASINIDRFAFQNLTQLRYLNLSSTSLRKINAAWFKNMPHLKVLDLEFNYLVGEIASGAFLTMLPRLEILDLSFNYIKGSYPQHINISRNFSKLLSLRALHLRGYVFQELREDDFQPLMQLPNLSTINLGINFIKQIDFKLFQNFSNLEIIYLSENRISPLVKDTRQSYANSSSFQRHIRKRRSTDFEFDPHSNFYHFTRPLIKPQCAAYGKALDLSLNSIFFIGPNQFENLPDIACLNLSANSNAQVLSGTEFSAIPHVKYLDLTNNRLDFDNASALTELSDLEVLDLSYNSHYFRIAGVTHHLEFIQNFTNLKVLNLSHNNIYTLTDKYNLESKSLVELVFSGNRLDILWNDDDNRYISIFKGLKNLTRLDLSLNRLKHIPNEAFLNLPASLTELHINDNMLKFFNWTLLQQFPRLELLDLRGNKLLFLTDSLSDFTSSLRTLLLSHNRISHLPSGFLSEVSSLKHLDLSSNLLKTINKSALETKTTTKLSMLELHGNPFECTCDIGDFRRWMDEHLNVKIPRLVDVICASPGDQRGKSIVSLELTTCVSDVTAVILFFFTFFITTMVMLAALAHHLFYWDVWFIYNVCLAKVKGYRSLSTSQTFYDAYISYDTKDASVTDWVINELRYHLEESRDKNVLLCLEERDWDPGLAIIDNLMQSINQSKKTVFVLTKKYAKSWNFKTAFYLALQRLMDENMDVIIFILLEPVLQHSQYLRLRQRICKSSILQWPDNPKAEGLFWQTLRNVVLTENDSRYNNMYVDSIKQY
human TLR9, sequence (Q9NR96 26-1032): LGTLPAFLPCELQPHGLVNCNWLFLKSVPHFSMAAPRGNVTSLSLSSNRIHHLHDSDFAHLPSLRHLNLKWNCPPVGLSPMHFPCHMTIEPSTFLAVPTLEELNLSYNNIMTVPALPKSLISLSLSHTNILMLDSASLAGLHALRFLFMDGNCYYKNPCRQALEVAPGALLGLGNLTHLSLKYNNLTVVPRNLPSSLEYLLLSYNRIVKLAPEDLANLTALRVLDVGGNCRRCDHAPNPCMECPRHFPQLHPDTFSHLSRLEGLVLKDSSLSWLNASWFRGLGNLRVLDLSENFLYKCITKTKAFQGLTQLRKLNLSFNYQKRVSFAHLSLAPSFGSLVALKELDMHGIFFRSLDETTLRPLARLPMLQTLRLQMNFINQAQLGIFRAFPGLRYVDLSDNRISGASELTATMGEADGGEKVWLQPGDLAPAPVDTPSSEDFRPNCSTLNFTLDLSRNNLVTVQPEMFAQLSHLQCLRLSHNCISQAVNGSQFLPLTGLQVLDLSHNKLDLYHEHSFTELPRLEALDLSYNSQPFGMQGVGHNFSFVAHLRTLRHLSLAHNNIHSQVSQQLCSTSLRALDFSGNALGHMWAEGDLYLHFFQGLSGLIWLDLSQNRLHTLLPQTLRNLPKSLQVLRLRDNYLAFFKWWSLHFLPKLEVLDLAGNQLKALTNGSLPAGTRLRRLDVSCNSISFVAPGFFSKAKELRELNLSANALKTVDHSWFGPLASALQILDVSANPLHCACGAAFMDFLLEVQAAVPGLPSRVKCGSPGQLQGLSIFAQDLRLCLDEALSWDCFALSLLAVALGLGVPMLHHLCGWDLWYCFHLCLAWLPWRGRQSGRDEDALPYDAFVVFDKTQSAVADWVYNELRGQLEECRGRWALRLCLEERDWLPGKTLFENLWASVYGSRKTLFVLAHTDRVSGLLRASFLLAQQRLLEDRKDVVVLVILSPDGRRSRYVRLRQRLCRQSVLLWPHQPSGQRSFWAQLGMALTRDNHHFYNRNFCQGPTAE

SMILES | pIC50 (human TLR9; [1]) | pIC50 (human TLR8; [2]) | pIC50 (human TLR7; [3]) | further results
Cc1cc(-c2[nH]c3ccc(C4CCN(C(=O)[C@@H](N)CCCN)CC4)cc3c2C(C)C)ccn1 [Example 577, (S)-2,5-diamino-1-(4-(3-isopropyl-2-(2-methylpyridin-4-yl)-1H-indol-5-yl)piperidin-1-yl)pentan-1-one] | 5.09 | 7.23 | 6.92 | –
Cc1cc(-c2[nH]c3ccc(C4CCN(C(=O)CN(C)C)CC4)cc3c2CC(F)F)cc(C)n1 [Example 533, 1-(4-(3-(2,2-difluoroethyl)-2-(2,6-dimethylpyridin-4-yl)-1H-indol-5-yl)piperidin-1-yl)-2-(dimethylamino)ethan-1-one] | 5.83 | 6.55 | 7.11 | –
Cc1cc(-c2[nH]c3ccc(C4CCN(C(=O)CNC(C)C)CC4)cc3c2C(C)C)cc(C)n1 [Example 344, 1-(4-(2-(2,6-dimethylpyridin-4-yl)-3-isopropyl-1H-indol-5-yl)piperidin-1-yl)-2-(isopropylamino)ethan-1-one] | 6.31 | 8.08 | 8.60 | –
CC(C)c1c(-c2ccnc(Cl)c2F)[nH]c2ccc(C3CCNCC3)cc12 [Example 21, 2-(2-chloro-3-fluoropyridin-4-yl)-3-isopropyl-5-(piperidin-4-yl)-1H-indole] | 5.53 | 8.40 | 8.82 | –
Cc1cc(-c2[nH]c3ccc(C4CCN(C(=O)CN5CCCC(C)C5)CC4)cc3c2C(C)C)cc(C)n1 (centres unmarked) [Example 378, 1-(4-(2-(2,6-dimethylpyridin-4-yl)-3-isopropyl-1H-indol-5-yl)piperidin-1-yl)-2-(3-methylpiperidin-1-yl)ethan-1-one] | 6.41 | 7.93 | 8.77 | –
Cc1cc(-c2[nH]c3ccc(C4CCN(C5CCOCC5)CC4)cc3c2C(C)C)ccn1 [Example 710, 3-isopropyl-2-(2-methylpyridin-4-yl)-5-(1-(tetrahydro-2H-pyran-4-yl)piperidin-4-yl)-1H-indole] | 6.26 | 8.52 | 8.10 | –
Cc1cc(-c2[nH]c3cc(F)c(C4CCN(C5CCOCC5)CC4)cc3c2C(C)C)cc(C)n1 [Example 831, 2-(2,6-dimethylpyridin-4-yl)-6-fluoro-3-isopropyl-5-(1-(tetrahydro-2H-pyran-4-yl)piperidin-4-yl)-1H-indole] | – | – | – | pIC50 (human TLR9; [4]): 6.25; pIC50 (human TLR8; [5]): 7.94; pIC50 (human TLR7; [6]): 8.21
Cc1cc(-c2[nH]c3ccc(C4CCN(C(=O)C[C@H]5CCCN5)CC4)cc3c2C(C)C)cc(C)n1 [Example 193, (R)-1-(4-(2-(2,6-dimethylpyridin-4-yl)-3-isopropyl-1H-indol-5-yl)piperidin-1-yl)-2-(pyrrolidin-2-yl)ethan-1-one] | 6.64 | 7.83 | – | –
Cc1cc(-c2[nH]c3ccc(C4CCN(C(=O)[C@@]5(C)CCCN5)CC4)cc3c2C(C)C)cc(C)n1 [Example 192, (R)-(4-(2-(2,6-dimethylpyridin-4-yl)-3-isopropyl-1H-indol-5-yl)piperidin-1-yl)(2-methylpyrrolidin-2-yl)methanone] | 6.81 | 8.14 | – | –
Cc1cc(-c2[nH]c3ccc(C4CCN(C(=O)c5ccc(C)n(C)c5=O)CC4)cc3c2C(C)C)cc(C)n1 [Example 138, 3-(4-(2-(2,6-dimethylpyridin-4-yl)-3-isopropyl-1H-indol-5-yl)piperidine-1-carbonyl)-1,6-dimethylpyridin-2(1H)-one] | – | 6.97 | 8.12 | –
COC(=O)c1c(-c2cc(C)nc(C)c2)[nH]c2ccc(C3CCNCC3)cc12 [Example 495, methyl 2-(2,6-dimethylpyridin-4-yl)-5-(piperidin-4-yl)-1H-indole-3-carboxylate] | 6.84 | 4.90 | – | –
Cc1cc(-c2[nH]c3ccc(C4CCN(C(=O)C5(C)COC5)CC4)cc3c2C(C)C)cc(C)n1 [Example 207, (4-(2-(2,6-dimethylpyridin-4-yl)-3-isopropyl-1H-indol-5-yl)piperidin-1-yl)(3-methyloxetan-3-yl)methanone] | 4.32 | 7.04 | – | –
Cc1cc(-c2[nH]c3cc(F)c(C4CCN(C5COC5)CC4)cc3c2C(C)C)cc(C)n1 [Example 834, 2-(2,6-dimethylpyridin-4-yl)-6-fluoro-3-isopropyl-5-(1-(oxetan-3-yl)piperidin-4-yl)-1H-indole] | – | – | – | pIC50 (human TLR8; [5]): 7.62; pIC50 (human TLR7; [6]): 8.36
COCCC(=O)N1CCC(c2ccc3[nH]c(-c4cc(C)nc(C)c4)c(C(C)C)c3c2)CC1 [Example 118, 1-(4-(2-(2,6-dimethylpyridin-4-yl)-3-isopropyl-1H-indol-5-yl)piperidin-1-yl)-3-methoxypropan-1-one] | < 4.30 | 7.10 | – | –
Cc1cc(-c2[nH]c3ccc(C4CCN(C(=O)CCn5ccc(C)n5)CC4)cc3c2C(C)C)cc(C)n1 [Example 143, 1-(4-(2-(2,6-dimethylpyridin-4-yl)-3-isopropyl-1H-indol-5-yl)piperidin-1-yl)-3-(3-methyl-1H-pyrazol-1-yl)propan-1-one] | 4.60 | 6.76 | – | –
Cc1cc(-c2[nH]c3ccc(C4CCN(C(=O)C5CC(=O)N(C)C5)CC4)cc3c2C(C)C)ccn1 (centres unmarked) [Example 618, 4-(4-(3-isopropyl-2-(2-methylpyridin-4-yl)-1H-indol-5-yl)piperidine-1-carbonyl)-1-methylpyrrolidin-2-one] | < 4.30 | 6.97 | – | –
Cc1cc(-c2[nH]c3ccc(C4CCN(CC(=O)N(C)C5CCOCC5)CC4)cc3c2C(C)C)cc(C)n1 [Example 287, 2-(4-(2-(2,6-dimethylpyridin-4-yl)-3-isopropyl-1H-indol-5-yl)piperidin-1-yl)-N-methyl-N-(tetrahydro-2H-pyran-4-yl)acetamide] | – | – | – | pIC50 (human TLR9; [7]): 6.48; pIC50 (human TLR8; [8]): 7.66
Cc1cc(-c2[nH]c3ccc(C4CCN(c5cccnc5)CC4)cc3c2C(C)C)ccn1 [Example 847, 3-isopropyl-2-(2-methylpyridin-4-yl)-5-(1-(pyridin-3-yl)piperidin-4-yl)-1H-indole] | – | – | – | pIC50 (human TLR8; [5]): 6.69; pIC50 (human TLR7; [6]): 7.21
COCCN(C)C(=O)CN1CCC(c2ccc3[nH]c(-c4cc(C)nc(C)c4)c(C(C)C)c3c2)CC1 [Example 254, 2-(4-(2-(2,6-dimethylpyridin-4-yl)-3-isopropyl-1H-indol-5-yl)piperidin-1-yl)-N-(2-methoxyethyl)-N-methylacetamide] | – | – | 8.05 | pIC50 (human TLR8; [8]): 7.75
Cc1nccc(-c2[nH]c3ccc(C4CCN(Cc5cnc[nH]5)CC4)cc3c2C(C)C)c1N [Example 745, 4-(5-(1-((1H-imidazol-5-yl)methyl)piperidin-4-yl)-3-isopropyl-1H-indol-2-yl)-2-methylpyridin-3-amine] | – | – | 7.00 | pIC50 (human TLR8; [8]): 6.89
COCCC(=O)N1CCC(c2ccc3[nH]c(-c4ccnc(C)c4)c(C(C)C)c3c2)CC1 [Example 571, 1-(4-(3-isopropyl-2-(2-methylpyridin-4-yl)-1H-indol-5-yl)piperidin-1-yl)-3-methoxypropan-1-one] | – | 6.99 | 7.10 | –
Cc1cc(-c2[nH]c3ccc(C4CCN(Cc5ncn(C)n5)CC4)cc3c2C(C)C)c(F)cn1 [Example 724, 2-(5-fluoro-2-methylpyridin-4-yl)-3-isopropyl-5-(1-((1-methyl-1H-1,2,4-triazol-3-yl)methyl)piperidin-4-yl)-1H-indole] | – | 8.02 | 7.86 | –
Cc1cc(-c2[nH]c3ccc(C4CCN(C(=O)C(C)C)CC4)cc3c2C(C)C)cc(C)n1 [Example 202, 1-(4-(2-(2,6-dimethylpyridin-4-yl)-3-isopropyl-1H-indol-5-yl)piperidin-1-yl)-2-methylpropan-1-one] | 4.40 | 6.49 | – | –
Cc1cc(-c2[nH]c3ccc(C4CCN(C(=O)CN5CCC(C)CC5)CC4)cc3c2C(C)C)cc(C)n1 [Example 376, 1-(4-(2-(2,6-dimethylpyridin-4-yl)-3-isopropyl-1H-indol-5-yl)piperidin-1-yl)-2-(4-methylpiperidin-1-yl)ethan-1-one] | 6.20 | 7.68 | – | –
Cc1cc(-c2[nH]c3ccc(C4CCN(C(=O)C5CCNC5)CC4)cc3c2C(C)C)cc(C)n1 (centres unmarked) [Example 186, (4-(2-(2,6-dimethylpyridin-4-yl)-3-isopropyl-1H-indol-5-yl)piperidin-1-yl)(pyrrolidin-3-yl) methanone] | – | – | – | pIC50 (human TLR9; [7]): 6.29; pIC50 (human TLR8; [8]): 7.65
Cc1cc(-c2[nH]c3ccc(C4CCN(C(=O)CC5C(=O)N(C)C(=O)N5C)CC4)cc3c2C(C)C)cc(C)n1 (centres unmarked) [Example 122, 5-(2-(4-(2-(2,6-dimethylpyridin-4-yl)-3-isopropyl-1H-indol-5-yl)piperidin-1-yl)-2-oxoethyl)-1,3-dimethylimidazolidine-2,4-dione] | – | 7.35 | 8.17 | –
CCc1c(-c2ccncc2)[nH]c2ccc(C3CCN(C4CCN(CC)CC4)CC3)cc12 [Example 809, 3-ethyl-5-(1′-ethyl-[1,4′-bipiperidin]-4-yl)-2-(pyridin-4-yl)-1H-indole] | – | – | – | pIC50 (human TLR9; [4]): 6.51; pIC50 (human TLR7; [6]): 6.05
COc1cc(-c2[nH]c3ccc(C4CCNCC4)cc3c2C(C)C)ccn1 [Example 485, 3-isopropyl-2-(2-methoxypyridin-4-yl)-5-(piperidin-4-yl)-1H-indole] | 5.52 | – | 7.93 | –
Cc1cc(-c2[nH]c3ccc(C4CCN(C(=O)c5cccnc5)CC4)cc3c2C(C)C)cc(C)n1 [Example 113, (4-(2-(2,6-dimethylpyridin-4-yl)-3-isopropyl-1H-indol-5-yl)piperidin-1-yl)(pyridin-3-yl)methanone] | – | 7.10 | 8.23 | –
